Experimental data: US12139492B2 (Endotarget Inc., priority 2021, dated 2024)

Key:
Type in all cases: cell-based
Mino cells = assay: Antiproliferative effect, MTS cell viability assay, Mino cells; settings: Homo sapiens, MINO, Mino mantle cell lymphoma cells; read-out: IC50 (anti-proliferation) Mino cells
How it was run: (§1)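 Mino and JeKo-1 mantle B-cell lymphoma lines were exposed to compound at 0, 0.001, 0.01, 0.1, 1 and 10 μM for 72 h. Viability was read by MTS reduction to formazan, measured as absorbance at 490 nm.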

BTK = BTK (Homo sapiens, UniProt Q06187); assay: BTK degradation, DC50 and Dmax of Table 1 (cell line not given); design: endogenous in cells; settings: for DC50: concentration giving 50% reduction of BTK expression level
Sequence of BTK (Q06187 whole entry): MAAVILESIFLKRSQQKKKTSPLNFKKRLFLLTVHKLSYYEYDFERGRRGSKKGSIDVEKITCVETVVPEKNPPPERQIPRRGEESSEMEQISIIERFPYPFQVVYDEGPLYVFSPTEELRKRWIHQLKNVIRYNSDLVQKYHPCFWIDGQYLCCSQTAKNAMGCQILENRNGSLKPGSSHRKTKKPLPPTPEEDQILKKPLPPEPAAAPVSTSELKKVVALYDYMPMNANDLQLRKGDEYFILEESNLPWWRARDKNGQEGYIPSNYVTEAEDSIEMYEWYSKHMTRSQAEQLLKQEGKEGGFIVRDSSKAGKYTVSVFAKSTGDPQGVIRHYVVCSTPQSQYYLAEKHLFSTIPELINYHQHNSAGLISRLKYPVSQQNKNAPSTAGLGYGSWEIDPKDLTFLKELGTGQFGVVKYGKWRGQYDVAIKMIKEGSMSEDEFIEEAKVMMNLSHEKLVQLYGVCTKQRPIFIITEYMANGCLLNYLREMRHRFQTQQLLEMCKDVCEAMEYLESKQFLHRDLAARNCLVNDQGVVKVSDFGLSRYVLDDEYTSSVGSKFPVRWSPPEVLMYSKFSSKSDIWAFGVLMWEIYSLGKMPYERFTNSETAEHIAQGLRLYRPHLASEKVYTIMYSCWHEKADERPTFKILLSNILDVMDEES

JeKo-1 cells = assay: Antiproliferative effect, MTS cell viability assay, JeKo-1 cells; settings: Homo sapiens; JeKo-1 mantle cell lymphoma cells; read-out: IC50 (anti-proliferation) JeKO-1 cells
How it was run: as §1

Structure (SMILES)	Dmax (BTK) [%]	DC50 (BTK) [µM]	IC50 (Mino cells) [µM]	IC50 (JeKo-1 cells) [µM]
Nc1ncnc2c1c(-c1ccc(Oc3ccccc3)cc1)nn2[C@@H]1CCCN(C(=O)N2CCC(CCCN3CCC(c4ccc5c(c4)CN(C4CCC(=O)NC4=O)C5=O)CC3)CC2)C1 (stereo partly drawn) [Compound 116, 3-(5-(1-(3-(1-((R)-3-(4-amino-3-(4-phenoxyphenyl)-1H-pyrazolo[3,4-d]pyrimidin-1-yl)piperidine-1-carbonyl)piperidin-4-yl)propyl)piperidin-4-yl)-1-oxoisoindolin-2-yl)piperidine-2,6-dione]	> 75	> 0.05	> 10	> 10
Nc1ncnc2c1c(-c1ccc(Oc3ccccc3)cc1)nn2C1CCN(C(=O)N2CCC(CCCN3CCN(c4ccc5c(c4)C(=O)N(C4CCC(=O)NC4=O)C5=O)CC3)CC2)CC1 (centres unmarked) [Compound 117, 5-(4-(3-(1-(4-(4-amino-3-(4-phenoxyphenyl)-1H-pyrazolo[3,4-d]pyrimidin-1-yl)piperidine-1-carbonyl)-piperidin-4-yl)propyl)piperazin-1-yl)-2-(2,6-dioxopiperidin-3-yl)isoindoline-1,3-dione]	> 75	> 0.05	1 to 10	1 to 10
Nc1ncnc2c1c(-c1ccc(Oc3ccccc3)cc1)nn2C1CCN(C(=O)N2CCN(CCCN3CCN(c4ccc5c(c4)C(=O)N(C4CCC(=O)NC4=O)C5=O)CC3)CC2)CC1 (centres unmarked) [Compound 119, 5-(4-(3-(4-(4-(4-amino-3-(4-phenoxyphenyl)-1H-pyrazolo[3,4-d]pyrimidin-1-yl)piperidine-1-carbonyl)piperazin-1-yl)propyl)piperazin-1-yl)-2-(2,6-dioxopiperidin-3-yl)isoindoline-1,3-dione]	> 75	> 0.05	1 to 10	> 10
Nc1ncnc2c1c(-c1ccc(Oc3ccccc3)cc1)nn2C1CCN(C(=O)N2CCN(CCCC3CCN(c4ccc5c(c4)CN(C4CCC(=O)NC4=O)C5=O)CC3)CC2)CC1 (centres unmarked) [Compound 122, 3-(5-(4-(3-(4-(4-(4-amino-3-(4-phenoxyphenyl)-1H-pyrazolo[3,4-d]pyrimidin-1-yl)piperidine-1-carbonyl)piperazin-1-yl)propyl)piperidin-1-yl)-1-oxoisoindolin-2-yl)piperidine-2,6-dione]	> 75	> 0.05	1 to 10	1 to 10
Nc1ncnc2c1c(-c1ccc(Oc3ccccc3)cc1)nn2C1CCN(C(=O)N2CCN(CCCN3CCC(c4ccc5c(c4)C(=O)N(C4CCC(=O)NC4=O)C5=O)CC3)CC2)CC1 (centres unmarked) [Compound 123, 5-(1-(3-(4-(4-(4-amino-3-(4-phenoxyphenyl)-1H-pyrazolo[3,4-d]pyrimidin-1-yl)piperidine-1-carbonyl)piperazin-1-yl)propyl)piperidin-4-yl)-2-(2,6-dioxopiperidin-3-yl)isoindoline-1,3-dione]	> 75	> 0.05	1 to 10	1 to 10
Nc1ncnc2c1c(-c1ccc(Oc3ccccc3)cc1)nn2C1CCN(C(=O)N2CCN(CCCN3CCC(c4ccc5c(c4)CN(C4CCC(=O)NC4=O)C5=O)CC3)CC2)CC1 (centres unmarked) [Compound 124, 3-(5-(1-(3-(4-(4-(4-amino-3-(4-phenoxyphenyl)-1H-pyrazolo[3,4-d]pyrimidin-1-yl)piperidine-1-carbonyl)piperazin-1-yl)propyl)piperidin-4-yl)-1-oxoisoindolin-2-yl)piperidine-2,6-dione]	> 90	> 0.05	> 10	> 10
Nc1ncnc2c1c(-c1ccc(Oc3ccccc3)cc1)nn2C1CCN(C(=O)N2CCC(CCCC3CCN(c4ccc5c(c4)C(=O)N(C4CCC(=O)NC4=O)C5=O)CC3)CC2)CC1 (centres unmarked) [Compound 125, 5-(4-(3-(1-(4-(4-amino-3-(4-phenoxyphenyl)-1H-pyrazolo[3,4-d]pyrimidin-1-yl)piperidine-1-carbonyl)piperidin-4-yl)propyl)piperidin-1-yl)-2-(2,6-dioxopiperidin-3-yl)isoindoline-1,3-dione]	> 90	> 0.05	> 10	1 to 10
Nc1ncnc2c1c(-c1ccc(Oc3ccccc3)cc1)nn2C1CCN(C(=O)N2CCC(CCCC3CCN(c4ccc5c(c4)CN(C4CCC(=O)NC4=O)C5=O)CC3)CC2)CC1 (centres unmarked) [Compound 126, 3-(5-(4-(3-(1-(4-(4-amino-3-(4-phenoxyphenyl)-1H-pyrazolo[3,4-d]pyrimidin-1-yl)piperidine-1-carbonyl)piperidin-4-yl)propyl)piperidin-1-yl)-1-oxoisoindolin-2-yl)piperidine-2,6-dione]	> 90	> 0.05	1 to 10	> 10
Nc1ncnc2c1c(-c1ccc(Oc3ccccc3)cc1)nn2C1CCN(C(=O)N2CCC(CCCN3CCC(c4ccc5c(c4)C(=O)N(C4CCC(=O)NC4=O)C5=O)CC3)CC2)CC1 (centres unmarked) [Compound 127, 5-(1-(3-(1-(4-(4-amino-3-(4-phenoxyphenyl)-1H-pyrazolo[3,4-d]pyrimidin-1-yl)piperidine-1-carbonyl)piperidin-4-yl)propyl)piperidin-4-yl)-2-(2,6-dioxopiperidin-3-yl)isoindoline-1,3-dione]	> 90	> 0.05	1 to 10	> 10
Nc1ncnc2c1c(-c1ccc(Oc3ccccc3)cc1)nn2[C@@H]1CCCN(CC2CCN(CC3CCN(c4ccc5c(c4)CN(C4CCC(=O)NC4=O)C5=O)CC3)CC2)C1 (stereo partly drawn) [Compound 130, 3-(5-(4-((4-(((R)-3-(4-amino-3-(4-phenoxyphenyl)-1H-pyrazolo[3,4-d]pyrimidin-1-yl)piperidin-1-yl)methyl)piperidin-1-yl)methyl)piperidin-1-yl)-1-oxoisoindolin-2-yl)piperidine-2,6-dione]	> 90	0.01 to 0.05	1 to 10	1 to 10
Nc1ncnc2c1c(-c1ccc(Oc3ccccc3)cc1)nn2[C@@H]1CCCN(CC2CCN(CCC3CCN(c4ccc5c(c4)C(=O)N(C4CCC(=O)NC4=O)C5=O)CC3)CC2)C1 (some centres unmarked) [Compound 131]	> 75	0.01 to 0.05	1 to 10	1 to 10
Nc1ncnc2c1c(-c1ccc(Oc3ccccc3)cc1)nn2[C@@H]1CCCN(CC2CCN(CCC3CCN(c4ccc5c(c4)CN(C4CCC(=O)NC4=O)C5=O)CC3)CC2)C1 (stereo partly drawn) [Compound 132, 3-(5-(4-(2-(4-(((R)-3-(4-amino-3-(4-phenoxyphenyl)-1H-pyrazolo[3,4-d]pyrimidin-1-yl)piperidin-1-yl)methyl)piperidin-1-yl)ethyl)piperidin-1-yl)-1-oxoisoindolin-2-yl)piperidine-2,6-dione]	> 90	0.01 to 0.05	1 to 10	1 to 10

Second part, led by results:

Dmax (BTK) [%]	DC50 (BTK) [µM]	Structure (SMILES)	IC50 (Mino cells) [µM]	IC50 (JeKo-1 cells) [µM]
> 75	> 0.05	Nc1ncnc2c1c(-c1ccc(Oc3ccccc3)cc1)nn2C1CCN(C(=O)N2CCC(CCCN3CCN(c4ccc5c(c4)CN(C4CCC(=O)NC4=O)C5=O)CC3)CC2)CC1 (centres unmarked) [Compound 118, 3-(5-(4-(3-(1-(4-(4-amino-3-(4-phenoxyphenyl)-1H-pyrazolo[3,4-d]pyrimidin-1-yl)piperidine-1-carbonyl)piperidin-4-yl)propyl)piperazin-1-yl)-1-oxoisoindolin-2-yl)piperidine-2,6-dione]	> 10	1 to 10
> 75	> 0.05	Nc1ncnc2c1c(-c1ccc(Oc3ccccc3)cc1)nn2C1CCN(C(=O)N2CCN(CCCN3CCN(c4ccc5c(c4)CN(C4CCC(=O)NC4=O)C5=O)CC3)CC2)CC1 (centres unmarked) [Compound 120, 3-(5-(4-(3-(4-(4-(4-amino-3-(4-phenoxyphenyl)-1H-pyrazolo[3,4-d]pyrimidin-1-yl)piperidine-1-carbonyl)piperazin-1-yl)propyl)piperazin-1-yl)-1-oxoisoindolin-2-yl)piperidine-2,6-dione]	> 10	> 10
> 75	> 0.05	Nc1ncnc2c1c(-c1ccc(Oc3ccccc3)cc1)nn2C1CCN(C(=O)N2CCN(CCCC3CCN(c4ccc5c(c4)C(=O)N(C4CCC(=O)NC4=O)C5=O)CC3)CC2)CC1 (centres unmarked) [Compound 121, 5-(4-(3-(4-(4-(4-amino-3-(4-phenoxyphenyl)-1H-pyrzolo[3,4-d]pyrimidin-1-yl)piperidine-1-carbonyl)piperazin-1-yl)propyl)piperidin-1-yl)-2-(2,6-dioxopiperidin-3-yl)isoindoline-1,3-dione]	1 to 10	1 to 10
> 90	> 0.05	Nc1ncnc2c1c(-c1ccc(Oc3ccccc3)cc1)nn2C1CCN(C(=O)N2CCC(CCCN3CCC(c4ccc5c(c4)CN(C4CCC(=O)NC4=O)C5=O)CC3)CC2)CC1 (centres unmarked) [Compound 128, 3-(5-(1-(3-(1-(4-(4-amino-3-(4-phenoxyphenyl)-1H-pyrazolo[3,4-d]pyrimidin-1-yl)piperidine-1-carbonyl)piperidin-4-yl)propyl)piperidin-4-yl)-1-oxoisoindolin-2-yl)piperidine-2,6-dione]	1 to 10	> 10
> 75	0.01 to 0.05	Nc1ncnc2c1c(-c1ccc(Oc3ccccc3)cc1)nn2[C@@H]1CCCN(CC2CCN(CC3CCN(c4ccc5c(c4)C(=O)N(C4CCC(=O)NC4=O)C5=O)CC3)CC2)C1 (stereo partly drawn) [Compound 129, 5-(4-((4-(((R)-3-(4-amino-3-(4-phenoxyphenyl)-1H-pyrazolo[3,4-d]pyrimidin-1-yl)piperidin-1-yl)methyl)piperidin-1-yl)methyl)piperidin-1-yl)-2-(2,6-dioxopiperidin-3-yl)isoindoline-1,3-dione]	> 10	> 10
